Entries after “also recorded” stand apart in the source; their conditions may differ.
Key:
[1] = tested on: gut microbiome; assay: Normal human volunteer study of D-xylose: changes in the gut microbiome (stool V3-V4 16S sequencing); assay type: in vivo; conditions: for gut microbiome community composition: over time on study; for alpha diversity of the gut microbiome: regardless of ingestion amount
[2] = Normal human volunteer study of D-xylose: serum and urine pharmacokinetics; assay type: in vivo
Text: Blood and urine were collected at pre-specified pre- and post-ingestion time points to measure D-xylose levels and to characterize the systemic absorption profiles of D-xylose. Phoenix® WinNonLin®, Version 6.2.1, was used for PK analyses. Serum D-xylose concentrations were summarized by cohort using nominal sample times according to actual amount received using summary statistics (n, coefficient of variation [CV], mean, standard deviation [SD], median, minimum, and maximum). Evidence for the occurrence of steady-state was assessed graphically by comparing the time course of either trough or 2-hour post-ingestion serum concentrations of D-xylose as different levels of D-xylose. Accumulation was assessed by comparing the 2-hour post-first-ingestion serum levels with those observed at Week 2 (Day 15) and Week 4 (Day 28). […] Urine PK parameters for D-xylose levels included Ae(0-t) (cumulative amount of sweetener recovered in urine) and percent sweetener amount excreted over a 5-hour period.

[3] = tested on: gut microbiome; conditions: mouse, in vivo
[4] = tested on: healthy, adult volunteers; assay: Normal human volunteer study of D-xylose: CRP, serum cytokines, T-cell markers; assay type: in vivo
Text: Blood was collected at pre-specified pre- and post-ingestion time points to evaluate C-reactive protein (CRP), serum cytokines (tumor necrosis factor alpha [TNF-α], interleukin [IL]-2, IL-6, interferon gamma [IFN-γ], and IL-10), and T-cell markers CD3, CD4, CD8, CD25, and FOXP3. Plasma was also stored and may be tested for biomarkers and/or metabolic markers for up to 7 years.
Summary statistics (n, mean, standard deviation, median, minimum, and maximum) were presented for serum concentrations of CRP, flow cytometry T-cell markers (CD3, CD4, CD8, CD25, and FOXP3), and cytokines (TNF-α, IL-2, IL-6, IFN-γ, and IL-10) as per their nominal time points.

[5] = tested on: healthy, adult volunteers; conditions: human, in vivo
Method: D-xylose is a carbon source generally preferred by anaerobic bacteria. […] A parallel, double-blind, 5 cohort escalation food safety study was conducted to examine D-xylose in normal human volunteers. The study was a double-blind, single-center, parallel group study designed to evaluate the tolerability and potential microbiome changes induced by ingestion of D-xylose at 5 different amounts in healthy, adult volunteers enrolled at 1 study center in the United States (US).
Subjects were screened for eligibility within 21 days prior to the first planned ingestion of study sweetener on Day 1 (Baseline). […]
Subjects returned to the study center weekly on Days 8, 15, 22, and 28 for ingestion, tolerability, and compliance evaluations. Safety was evaluated on a continual basis through adverse events (AE) monitoring, clinical laboratory measurements, vital sign monitoring, physical examinations, electrocardiograms (ECGs), telephone follow-up, and electronic subject ingestion diaries. Stool was collected pre-ingestion and at pre-specified time points, and post-ingestion samples were evaluated for changes in the gut microbiome compared with Baseline for all subjects. […]
Safety was evaluated on a continual basis through AE monitoring, clinical laboratory measurements, vital sign monitoring, physical examinations, ECGs, telephone follow-up, and electronic subject ingestion diaries. […]

[6] = in vivo, po; cited from earlier work
[7] = tested on: microbiome of the gut; conditions: mouse, in vivo
Text: (§1) The trillions of organisms forming the microbiome function as an organ system interconnected throughout the body. The possibility that modification of the microbiome in a given physical location may influence the microbiome at other sites in the body (distal augmentation) was investigated. Seven week old C57Bl/6 female mice were acclimatized for 7 days prior to the start of the study by daily handling and shuffling between cages. All mice were housed at three mice per cage in individually vented cages (Thoren, Hazleton, Pa.). At day 0, baseline fresh fecal pellets, and vaginal lavages with 100 μL of sterile double-distilled water were collected and immediately frozen at −80° C. for microbiome analysis. […] Water alone is not expected to influence the microbiome and acted as a negative control. […] The impact of oral vancomycin is therefore expected to be limited to the gastrointestinal tract such that microbiome changes elsewhere in the body (e.g. vagina) would be attributable to distal augmentation. At day 6, fresh fecal pellets and vaginal lavages with 100 μL of sterile double-distilled water were collected and immediately stored at −80° C. for microbiome analysis.
(§2) Isolation and sequencing of microbial DNA from the stool and vaginal samples was performed by DNA Genotek (Ottawa, ON, Canada). The V3-V4 region of the 16S ribosomal subunit was amplified with custom PCR primers and sequenced on an Illumina MiSeq to a minimum acceptable read depth of 25,000 sequences per sample. […] These OTU's were then assigned a curated taxonomic label based on the seven level SILVA taxonomy.

[8] = tested on: microbiome of the vagina; conditions: mouse, in vivo
Text: as §1, §2

[9] = tested on: human peripheral blood mononuclear cells (PBMCs); assay: Cytokine release by human PBMCs incubated with commensal bacteria alone or with E. faecalis (Luminex); assay type: cell-based; conditions: for overall anti-inflammatory cytokine profile for a Th-1-driven condition such as GVHD: alone and with EPV 8
Method: An in vitro system was developed to efficiently test the inflammatory and immunomodulatory properties of different human commensal bacteria on human peripheral blood mononuclear cells (PBMCs). Experiments were carried out with 21 bacterial candidates to profile their anti-inflammatory properties against human PBMCs. The innate properties of bacteria alone on human PBMCs were tested as well as their ability to counteract the pro-inflammatory activity of Enterococcus feacalis.
Human PBMCs were isolated from fresh blood by density-gradient centrifugation using Ficoll (1-4). […] The results are presented in FIGS. 2-5 for all time points. […] The 24 h results are shown as a composite in FIG. 6 and with statistical analysis on individual cytokines in FIGS. 7-10. The results represent the properties of each bacterial species against human PBMCs and their ability to counteract inflammatory stimulation with E. faecalis in vitro.

[10] = tested on: tumors; conditions: oral administration; Sivan et al., Vetizou et al.; cited from earlier work

Compound: O=C[C@H](O)[C@@H](O)[C@H](O)CO [D-xylose]
- Chao diversity index (community richness) ([1]; over time): overall decrease in the Chao diversity index over time
- gut microbiome community composition [1]: no significant changes in community composition
- gut microbiome community composition ([1]; listed as xylose): exerts subtle changes in the gut microbiome
- alpha diversity of the gut microbiome ([1]; over time): no apparent significant impact on the intra-sample alpha diversity
- alpha diversity of the gut microbiome ([1]; over time, listed as xylose): no major shifts in the microbiome alpha diversity
- ingested amount recovered in urine within 5 hours post-ingestion ([2]; 1 g TID, Days 1, 15 and 28): approximately 40%
- serum D-xylose concentrations vs ingestion amount ([2]; 1 to 15 g TID): increased linearly with increasing ingestion amounts
- accumulation ratio ([2]; Day 15, 15 mg TID cohort): approximately 1.9 fold
- accumulation of serum D-xylose ([2]; Day 15, 1 g to 12.5 g TID): Little to no accumulation
- accumulation ratio ([2]; Day 28, 15 g TID): 1.68
- shifts in the gut microbiome [3]: did not cause major shifts in the gut microbiome but showed some differences at the family level
- serum interferon gamma over time ([4]; 2 g and 15 g cohorts): trend for reduced levels of serum interferon gamma over time
- subjects with normal serum CRP at Baseline and at least 1 post-ingestion CRP value >2.9 mg/L ([4]; all cohorts): 8.3%
- total T-cells and T-cell subsets over time ([4]; any ingestion amount): No consistent or clinically meaningful changes over time
- serum cytokines (TNF-α, IL-2, IL-6, IFN-γ, IL-10) over time ([4]; most data points BLQ, any ingestion amount): did not indicate any consistent or clinically meaningful changes over time
- SAEs, severe AEs, deaths [5]: No SAEs, severe AEs, or subject deaths
- subjects who experienced at least 1 AE ([5]; 28 days): 38.9%

Compound: CN[C@H](CC(C)C)C(=O)N[C@H]1C(=O)N[C@@H](CC(N)=O)C(=O)N[C@H]2C(=O)N[C@H]3C(=O)N[C@H](C(=O)N[C@H](C(=O)O)c4cc(O)cc(O)c4-c4cc3ccc4O)[C@H](O)c3ccc(c(Cl)c3)Oc3cc2cc(c3O[C@@H]2O[C@H](CO)[C@@H](O)[C@H](O)[C@H]2O[C@H]2C[C@](C)(N)[C@H](O)[C@H](C)O2)Oc2ccc(cc2Cl)[C@H]1O [vancomycin]
- absorption from the gut [6]: poorly absorbed from the gut
- impact on the microbiome of the gut (PCA at family level) [7]: strong impact on the microbiome of the gut
- median abundance of bacterial species in vaginal samples at day 6 that were not present at day 0 [8]: approximately 0.00002%
- day 0 to day 6 pattern in vaginal samples (PCA) ([8]; po): showed an overall difference

Compound: B. luti [EPV3]
- intrinsic inflammatory activity (induction of pro-inflammatory cytokines) compared to EPV 8 [9]: relatively low intrinsic inflammatory activity compared to EPV 8
- overall anti-inflammatory cytokine profile for a Th-1-driven condition such as GVHD [9]: significantly desirable anti-inflammatory profile; also recorded: capable of inducing a desirable anti-inflammatory cytokine profile
- ability to reduce induction of pro-inflammatory cytokines by EPV 8 (IL-6, MCP-1, IL-12p70, IFNγ) ([9]; combination with EPV 8): able to reduce the induction of pro-inflammatory cytokines by EPV 8

Compound: B. wexlerae [EPV5]
- overall anti-inflammatory cytokine profile for a Th-1-driven condition such as GVHD [9]: suboptimal anti-inflammatory profile for GVHD; also recorded: induces a suboptimal profile for GVHD

Compound: Bacteroides
- responsiveness to checkpoint inhibitor therapy in cancer [10]: increases the responsiveness to checkpoint inhibitor therapy

Compound: Bifidobacterium
- responsiveness to checkpoint inhibitor therapy in cancer [10]: increases the responsiveness to checkpoint inhibitor therapy

Compound: Lactobacillus
- responsiveness to checkpoint inhibitor therapy in cancer [10]: not

— US20160271188A1, “PROBIOTIC AND PREBIOTIC COMPOSITIONS, AND METHODS OF USE THEREOF FOR TREATMENT OF GASTROINTESTINAL DISORDERS” (Epiva Biosciences, Inc., priority 2014, published 2016)
